Laboratory results: patent US20220056040A1, “NOVEL 3-(2-BROMO-4-ALKYNYL-6-ALKOXYPHENYL)-3-PYRROLIN-2-ONES AND THEIR USE AS HERBICIDES” (Bayer Aktiengesellschaft, priority 2019, published 2022)

How the values were obtained:
Type in all cases: in vivo
Alopecurus myosuroides [1] = assay: Pre-emergence herbicidal effect; settings: 80 g/ha, visual score after 3 weeks vs untreated controls
From the text: (§1) Seeds of monocotyledonous and dicotyledonous weed plants and crop plants are laid out in sandy loam soil in wood-fiber pots and covered with soil. The compounds of the invention, formulated in the form of wettable powders (WP) or as emulsion concentrates (EC), are then applied to the surface of the covering soil as aqueous suspension or emulsion at a water application rate equating to 600 to 800 L/ha with addition of 0.2% wetting agent. After the treatment, the pots are placed in a greenhouse and kept under good growth conditions for the trial plants. The damage to the test plants is scored visually after a test period of 3 weeks by comparison with untreated controls (herbicidal activity in percent (%): 100% activity=the plants have died, 0% activity=like control plants).

Digitaria sanguinalis [2] = assay: Pre-emergence herbicidal effect; settings: 80 g/ha, visual score after 3 weeks vs untreated controls
From the text: as §1

Echinochloa crus-galli [3] = assay: Pre-emergence herbicidal effect; settings: 80 g/ha, visual score after 3 weeks vs untreated controls
From the text: as §1

Avena fatua = assay: Pre-emergence herbicidal effect; settings: 80 g/ha, visual score after 3 weeks vs untreated controls
From the text: as §1

Setaria viridis [4] = assay: Pre-emergence herbicidal effect; settings: 80 g/ha, visual score after 3 weeks vs untreated controls
From the text: as §1

Lolium rigidum [5] = assay: Pre-emergence herbicidal effect; settings: 80 g/ha, visual score after 3 weeks vs untreated controls
From the text: as §1

Alopecurus myosuroides [6] = assay: Post-emergence herbicidal effect; settings: 80 g/ha, post-emergence at one-leaf stage, visual score after about 3 weeks
Description: (§2) Seeds of monocotyledonous and dicotyledonous weed and crop plants are laid out in sandyloam soil in wood-fiber pots, covered with soil and cultivated in a greenhouse under good growth conditions. 2 to 3 weeks after sowing, the test plants are treated at the one-leaf stage. The compounds of the invention, formulated in the form of wettable powders (WP) or as emulsion concentrates (EC), are then sprayed onto the green parts of the plants as aqueous suspension or emulsion at a water application rate equating to 600 to 800 l/ha with addition of 0.2% wetting agent. After the test plants have been left to stand in the greenhouse under optimal growth conditions for about 3 weeks, the action of the preparations is assessed visually in comparison to untreated controls (herbicidal action in percent (%): 100% activity=the plants have died, 0% activity=like control plants).

Digitaria sanguinalis [7] = assay: Post-emergence herbicidal effect; settings: 80 g/ha, post-emergence at one-leaf stage, visual score after about 3 weeks
Description: as §2

Hordeum murinum = assay: Post-emergence herbicidal effect; settings: 80 g/ha, post-emergence at one-leaf stage, visual score after about 3 weeks
Description: as §2

Echinochloa crus-galli [8] = assay: Post-emergence herbicidal effect; settings: 80 g/ha, post-emergence at one-leaf stage, visual score after about 3 weeks
Description: as §2

Setaria viridis [9] = assay: Post-emergence herbicidal effect; settings: 80 g/ha, post-emergence at one-leaf stage, visual score after about 3 weeks
Description: as §2

Lolium rigidum [10] = assay: Post-emergence herbicidal effect; settings: 80 g/ha, post-emergence at one-leaf stage, visual score after about 3 weeks
Description: as §2

SMILES | Pre-emergence action ALOMY (herbicidal activity in percent) (Alopecurus myosuroides [1]) | Pre-emergence action DIGSA (herbicidal activity in percent) (Digitaria sanguinalis [2]) | Pre-emergence action ECHCG (herbicidal activity in percent) (Echinochloa crus-galli [3]) | Pre-emergence action AVEFA (herbicidal activity in percent) (Avena fatua) | Pre-emergence action SETVI (herbicidal activity in percent) (Setaria viridis [4]) | Pre-emergence action LOLRI (herbicidal activity in percent) (Lolium rigidum [5]) | Post-emergence action against ALOMY (herbicidal action in percent) (Alopecurus myosuroides [6]) | Post-emergence action against DIGSA (herbicidal action in percent) (Digitaria sanguinalis [7]) | Post-emergence action against HORMU (herbicidal action in percent) (Hordeum murinum) | Post-emergence action against ECHCG (herbicidal action in percent) (Echinochloa crus-galli [8]) | Post-emergence action against SETVI (herbicidal action in percent) (Setaria viridis [9]) | Post-emergence action against LOLRI (herbicidal action in percent) (Lolium rigidum [10])
CC#Cc1cc(Br)c(C2=C(O)C3(CCOCC3)NC2=O)c(OC)c1 [Example 1.1.01, 3-[2-Bromo-6-methoxy-4-(prop-1-yn-1-yl)phenyl]-4-hydroxy-8-oxa-1-azaspiro[4.5]dec-3-en-2-one] | 90% | 100% | 100% | 100% | 100% | 100% | 100% | 100% | 100% | 100% | 100% | 100%
C=CCOC1CCC2(CC1)NC(=O)C(c1c(Br)cc(C#CC)cc1OC)=C2O (stereo not drawn) [Example 1.3.01] | 100% | 100% | 90% | 100% | 100% | 100% | 100% | 100% | 100% | 100% | 100% | 100%
